Measurements from US9877980B2, “Method and composition for treatment or prevention of type 2 diabetes and hyperlipidemia” (Chun-Ching Shih, priority 2016, dated 2018).

Columns and labels:
hepatocytes of HFD mice = experiment: Histology of liver tissue (hepatocellular ballooning); format: in vivo; settings: 4 weeks, grade 0 absence, 1 a few cells
Protocol: (§1) The following experiment was performed and approved by the guidelines of the Institutional Animal Care and Use Committee of Central Taiwan University of Science and Technology. The 4-week old male C57BL/6J mice (total amount n=63) were purchased from the National Laboratory Animal Breeding and Research Center (Taipei, Taiwan). After acclimatization for one week, all of the mice were divided randomly into the control (CON) group and the high-fat diet (HFD) group. For the following 12 weeks, the CON group (n=9) was kept on a low-fat diet (Diet 12450B, Research Diets, Inc., New Brunswick, N.J., USA), while the HFD group (n=54) was exposed to a high-fat diet (Diet 12451, Research Diets, New Brunswick, N.J., USA). The low-fat diet was composed of protein 20%, carbohydrate 70% and fat 10%, whereas the high-fat diet was composed of protein 20%, carbohydrate 35%, and fat 45% (of total energy, % kcal). After HFD exposure for 8 weeks, the HFD group was further randomly subdivided into 6 groups (n=9 per group) to receive different treatments by oral gavage once daily for four weeks and on HFD. […] The HF+B1, HF+B2, and […] are collectively termed BB-treated HFD groups in the following examples. The CON mice were administered vehicle. After dosing for 4 weeks, the mice were given no food at night and sacrificed after 12 h of fasting on the next day. All of the individual tissues were collected and weighed, and portions were instantly frozen using liquid nitrogen and kept at −80° C. for subsequent target gene analysis. Blood samples (0.8 mL) were collected for analysis of blood parameters.
Small pieces of epididymal white adipose tissue and liver tissue were fixed with formalin (200 g/kg) neutral buffered solution and embedded in paraffin. Sections of 8 μm […] were cut and stained with hematoxylin and eosin. For microscopic examination, a microscope (Leica, DM2500) was used, and the images were taken using a Leica Digital Camera (DFC-425-C).
Based on previous report, the designation of histological hepatocellular ballooning findings include grade 0 for absence of degeneration, grade 1 for degeneration in a few cells, and […] for degeneration in many cells.

AMPK = experiment: Western blotting of phospho-AMPK/total AMPK in skeletal muscle and liver; format: in vivo; settings: HFD mice, 4 weeks, vs HF group
Protocol: as §1
Protein extractions and immunoblots for the determination of phospho-AMPK (Thr^172) and phospho-Akt (Ser^473) proteins in skeletal muscle and liver tissue of mice (n=9) were carried out. About 0.1 g of liver tissue and skeletal muscle was used for the homogenate samples. Samples were powdered under liquid nitrogen and homogenized for 20 seconds in 500 μL buffer containing 20 mM Tris-HCL1 (pH 7.4 at 4° C.), 2% SDS, 5 mM EDTA, 5 mM EGTA, 1 mM DTT, 100 mM NaF, 2 mM sodium vanadate, 0.5 mM phenylmethylsulfonyl fluoride, 10 μg/mL leupeptin, and […] pepstatin. The protein concentration in supernatant was determined with a BCA protein assay kit (Thermo Scientific, Rockford, Ill., USA). 20 μg of proteins were separated by electrophoresis on a polyacrylamide gel 12% (SDS-PAGE) and transferred to a nitrocellulose membrane. The membranes were blocked with 5% slim milk in Tris-buffered saline (TBS)(Amersham BioSciences, Uppsala, Sweden) containing 0.05% Tween-20 (Bio Rad, CA, USA) and incubated overnight at 4° C. with anti-phospho-AMPK (Abcam Inc., Cambridge, Mass., USA) and anti-phospho-Akt (Cell signaling Technology, Inc., Danvers, Mass., USA) rabbit polyclonal antibodies at 1:200 dilution. Subsequently, the membranes were washed three times with TBS containing 0.05% Tween-20 and incubated with secondary antibody anti-rabbit (1:1000) (Jackson ImmunoResearch Laboratories, Inc., PA, USA) for 1 hour. Immunoreactive bands were detected with ECL reagent kit (GE Healthcare BioSciences, Buckinghamshire, UK). The intensity of blotting was analyzed using Alpha Easy FC software (Alpha Innotech Corporation, Randburg, South Africa). Structural proteins GAPDH (Santa Cruz Biotechnology, CA, USA) in the samples were used as the loading control.

OCC1O[C@@H](O[C@@H]2Cc3c(O)cc(O)cc3O[C@@H]2c2ccc(O)c(O)c2)C(O)C(O)[C@@H]1O (single isomer, unassigned; (-)) [compound of formula I, (−)-epicatechin-3-O-β-D-allopyranoside]
hepatocellular ballooning mean score (hepatocytes of HFD mice; 10 mg/kg/day oral gavage): 0.7±0.1 | hepatocellular ballooning mean score (hepatocytes of HFD mice; 20 mg/kg/day oral gavage): 0.5±0.2 | hepatocellular ballooning mean score (hepatocytes of HFD mice; 40 mg/kg/day oral gavage): 0.4±0.1 | expression level of phospho-AMPK/total AMPK (AMPK; liver, 10 mg/kg/day oral gavage): enhanced | expression level of phospho-AMPK/total AMPK (AMPK; liver, 20 mg/kg/day oral gavage): enhanced | expression level of phospho-AMPK/total AMPK (AMPK; liver, 40 mg/kg/day oral gavage): enhanced | expression level of phospho-AMPK/total AMPK (AMPK; skeletal muscle, 10 mg/kg/day oral gavage): enhanced | expression level of phospho-AMPK/total AMPK (AMPK; skeletal muscle, 20 mg/kg/day oral gavage): enhanced | expression level of phospho-AMPK/total AMPK (AMPK; skeletal muscle, 40 mg/kg/day oral gavage): enhanced
